Counter-ions that a name gives are not always drawn.
Target: T1, HCV polymerase (Hepatitis C virus genotype 1b, UniProt P26663)
T1 construct: a region encoding NS5B (J Virol 1991 March, 65(3), 1105-13, 544 amino acids after deletion of 47 amino acids on the C-terminal); 6xHis (C); made in house; host or cells: Escherichia coli
Experiment: biochemical
Parameters: species or system HCV BK strain
In short: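 His-tagged NS5B (BK strain, 47-aa C-terminal deletion, E. coli-expressed) at 0.5 μg/ml copied 5 μg/ml run-off RNA bearing the HCV 3′ UTR with 2 μM UTP plus [3H]UTP, 50 μM ATP/GTP, in pH 7.5 Tris with 5 mM MgCl2, 25 °C, 90 min. TCA-precipitated RNA was counted and IC50 calculated.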

T1 sequence (P26663 2420-2963): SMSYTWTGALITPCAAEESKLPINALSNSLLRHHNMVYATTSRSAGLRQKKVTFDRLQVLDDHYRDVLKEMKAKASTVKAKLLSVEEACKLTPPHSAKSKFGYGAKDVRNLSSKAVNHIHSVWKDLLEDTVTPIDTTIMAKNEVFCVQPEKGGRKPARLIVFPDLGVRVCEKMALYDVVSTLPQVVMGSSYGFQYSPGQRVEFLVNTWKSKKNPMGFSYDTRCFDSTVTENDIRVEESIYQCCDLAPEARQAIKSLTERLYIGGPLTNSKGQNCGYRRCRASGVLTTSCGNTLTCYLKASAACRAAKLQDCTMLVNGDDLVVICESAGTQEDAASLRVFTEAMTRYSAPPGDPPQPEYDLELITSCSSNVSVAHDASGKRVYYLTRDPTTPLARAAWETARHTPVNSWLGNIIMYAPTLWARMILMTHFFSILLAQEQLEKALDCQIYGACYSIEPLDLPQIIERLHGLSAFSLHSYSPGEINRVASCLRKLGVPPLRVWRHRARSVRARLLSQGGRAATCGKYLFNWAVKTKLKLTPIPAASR

Structure (SMILES) | IC50 [µM]
CNC(=O)c1ccc2c(C3CCCCC3)c3n(c2c1)CCOc1ccccc1-3 [Example 2-173, N-methyl-12-cyclohexyl-6,7-dihydro-5-oxa-7a-azadibenzo[a,e]azulene-9-carboxamide] | < 0.1
O=C(O)/C=C/c1ccc(NC(=O)C2(NC(=O)c3ccc4c(C5CCCCC5)c5n(c4c3)CCOc3ccccc3-5)CCNCC2)cc1 [Example 2-174, (E)-3-[4-({4-[(12-cyclohexyl-6,7-dihydro-5-oxa-7a-azadibenzo[a,e]azulene-9-carbonyl)amino]piperidine-4-carbonyl}amino)phenyl]acrylic acid] | < 0.1
COC(=O)[C@H](Cc1ccc(O)cc1)NC(=O)c1ccc2c(C3CCCCC3)c3n(c2c1)CCOc1ccccc1-3 [Example 2-175, methyl (S)-2-[(12-cyclohexyl-6,7-dihydro-5-oxa-7a-azadibenzo[a,e]azulene-9-carbonyl)amino]-3-(4-hydroxyphenyl)propionate] | < 0.1
CN(C)C(=O)CNc1cccc2c1OCCn1c-2c(C2CCCCC2)c2ccc(C(=O)O)cc21 [Example 2-176, 12-cyclohexyl-4-(dimethylcarbamoylmethylamino)-6,7-dihydro-5-oxa-7a-azadibenzo[a,e]azulene-9-carboxylic acid] | < 0.1
CC(C)(NC(=O)c1ccc2c(C3CCCCC3)c3n(c2c1)CCOc1ccccc1-3)C(=O)N[C@H]1CC[C@H](O)CC1 [Example 2-177, N-[1-(trans-4-hydroxycyclohexylcarbamoyl)-1-methylethyl]-12-cyclohexyl-6,7-dihydro-5-oxa-7a-azadibenzo[a,e]azulene-9-carboxamide] | < 0.1
CCN(C(=O)CN1CCCCC1)c1cccc2c1OCCn1c-2c(C2CCCCC2)c2ccc(C(=O)O)cc21 [Example 2-178, 12-cyclohexyl-4-{N-ethyl-N-[2-(piperidin-1-yl)acetyl]amino}-6,7-dihydro-5-oxa-7a-azadibenzo[a,e]azulene-9-carboxylic acid monohydrochloride] | < 0.1
O=C(Nc1ccc(OCc2ccccc2)cc1)c1ccc2c(C3CCCCC3)c3n(c2c1)CCOc1ccccc1-3 [Example 2-179, N-(4-benzyloxyphenyl)-12-cyclohexyl-6,7-dihydro-5-oxa-7a-azadibenzo[a,e]azulene-9-carboxamide] | 0.1 to 1
O=C(N[C@@H](Cc1ccc(O)cc1)C(=O)O)c1ccc2c(C3CCCCC3)c3n(c2c1)CCOc1ccccc1-3 [Example 2-180, (S)-2-[(12-cyclohexyl-6,7-dihydro-5-oxa-7a-azadibenzo[a,e]azulene-9-carbonyl)amino]-3-(4-hydroxyphenyl)propionic acid] | < 0.1
CC(=O)N1CCC(NC(=O)c2ccc3c(C4CCCCC4)c4n(c3c2)CCOc2ccccc2-4)(C(=O)O)CC1 [Example 2-181, 1-acetyl-4-[(12-cyclohexyl-6,7-dihydro-5-oxa-7a-azadibenzo[a,e]azulene-9-carbonyl)amino]piperidine-4-carboxylic acid] | < 0.1
CN1CCC(NC(=O)c2ccc3c(C4CCCCC4)c4n(c3c2)CCOc2ccccc2-4)(C(=O)O)CC1 [Example 2-182, 4-[(12-cyclohexyl-6,7-dihydro-5-oxa-7a-azadibenzo[a,e]azulene-9-carbonyl)amino]-1-methylpiperidine-4-carboxylic acid] | < 0.1
CC(C)(CNc1ccc(C(=O)O)cc1)NC(=O)c1ccc2c(C3CCCCC3)c3n(c2c1)CCOc1ccccc1-3 [Example 2-183, 4-{2-[(12-cyclohexyl-6,7-dihydro-5-oxa-7a-azadibenzo[a,e]azulene-9-carbonyl)amino]-2-methylpropylamino}benzoic acid] | < 0.1
CC(C)(CNc1ccc(C(N)=O)cc1)NC(=O)c1ccc2c(C3CCCCC3)c3n(c2c1)CCOc1ccccc1-3 [Example 2-184, N-[2-(4-carbamoylphenylamino)-1,1-dimethylethyl]-12-cyclohexyl-6,7-dihydro-5-oxa-7a-azadibenzo[a,e]azulene-9-carboxamide] | < 0.1
CC(C)(CNC(=O)OC(C)(C)C)NC(=O)c1ccc2c(C3CCCCC3)c3n(c2c1)CCOc1ccccc1-3 [Example 2-185, tert-butyl {2-[(12-cyclohexyl-6,7-dihydro-5-oxa-7a-azadibenzo[a,e]azulene-9-carbonyl)amino]-2-methylpropyl}carbamate] | 0.1 to 1
CC(C)(CN)NC(=O)c1ccc2c(C3CCCCC3)c3n(c2c1)CCOc1ccccc1-3 [Example 2-186, N-(2-amino-1,1-dimethylethyl)-12-cyclohexyl-6,7-dihydro-5-oxa-7a-azadibenzo[a,e]azulene-9-carboxamide monohydrochloride] | 0.1 to 1
CC(C)(CNCC(=O)O)NC(=O)c1ccc2c(C3CCCCC3)c3n(c2c1)CCOc1ccccc1-3 [Example 2-187, (2-[(12-cyclohexyl-6,7-dihydro-5-oxa-7a-azadibenzo[a,e]azulene-9-carbonyl)amino]-2-methylpropylamino)acetic acid] | 0.1 to 1
CC(C)(COc1ccc([N+](=O)[O-])cc1)NC(=O)c1ccc2c(C3CCCCC3)c3n(c2c1)CCOc1ccccc1-3 [Example 2-188, N-[1,1-dimethyl-2-(4-nitrophenoxy)ethyl]-12-cyclohexyl-6,7-dihydro-5-oxa-7a-azadibenzo[a,e]azulene-9-carboxamide] | 0.1 to 1
CN(C)CC(C)(NC(=O)c1ccc2c(C3CCCCC3)c3n(c2c1)CCOc1ccccc1-3)C(=O)O (centres unmarked) [Example 2-189, 2-[(12-cyclohexyl-6,7-dihydro-5-oxa-7a-azadibenzo[a,e]azulene-9-carbonyl)amino]-3-dimethylamino-2-methylpropionic acid] | 0.1 to 1
CC(C)(NC(=O)c1ccc2c(C3CCCCC3)c3n(c2c1)CCOc1ccccc1-3)C(=O)N1CCC(O)CC1 [Example 2-190, N-[2-(4-hydroxypiperidin-1-yl)-1,1-dimethyl-2-oxoethyl]-12-cyclohexyl-6,7-dihydro-5-oxa-7a-azadibenzo[a,e]azulene-9-carboxamide] | < 0.1
O=C(O)c1ccc2c(C3CCCCC3)c3n(c2c1)CCOc1c-3cccc1N(CCN1CCCCC1)Cc1ccccc1 [Example 2-191, 4-{N-benzyl-N-[2-(piperidin-1-yl)ethyl]amino}-12-cyclohexyl-6,7-dihydro-5-oxa-7a-azadibenzo[a,e]azulene-9-carboxylic acid dihydrochloride] | < 0.1
O=C(Nc1ccc(O)cc1)c1ccc2c(C3CCCCC3)c3n(c2c1)CCOc1ccccc1-3 [Example 2-192, N-(4-hydroxyphenyl)-12-cyclohexyl-6,7-dihydro-5-oxa-7a-azadibenzo[a,e]azulene-9-carboxamide] | < 0.1
CC(C)(NC(=O)c1ccc2c(C3CCCCC3)c3n(c2c1)CCOc1ccccc1-3)C(=O)Nc1ccc(C(N)=O)cc1 [Example 2-193, N-[1-(4-carbamoylphenylcarbamoyl)-1-methylethyl]-12-cyclohexyl-6,7-dihydro-5-oxa-7a-azadibenzo[a,e]azulene-9-carboxamide] | < 0.1
CN(C)C(=O)c1ccc(NC(=O)C(C)(C)NC(=O)c2ccc3c(C4CCCCC4)c4n(c3c2)CCOc2ccccc2-4)cc1 [Example 2-194, N-[1-(4-dimethylcarbamoylphenylcarbamoyl)-1-methylethyl]-12-cyclohexyl-6,7-dihydro-5-oxa-7a-azadibenzo[a,e]azulene-9-carboxamide] | < 0.1
CC(C)(NC(=O)c1ccc2c(C3CCCCC3)c3n(c2c1)CCOc1ccccc1-3)C(=O)Nc1ccc(CO)cc1 [Example 2-195, N-[1-(4-hydroxymethylphenylcarbamoyl)-1-methylethyl]-12-cyclohexyl-6,7-dihydro-5-oxa-7a-azadibenzo[a,e]azulene-9-carboxamide] | < 0.1
COC(=O)c1ccc2nc(C(C)(C)NC(=O)c3ccc4c(C5CCCCC5)c5n(c4c3)CCOc3ccccc3-5)[nH]c2c1 [Example 2-196, methyl 2-{1-[(12-cyclohexyl-6,7-dihydro-5-oxa-7a-azadibenzo[a,e]azulene-9-carbonyl)amino]-1-methylethyl}-3H-benzimidazole-5-carboxylate] | < 0.1
O=C(O)c1ccc2nc(CNC(=O)c3ccc4c(C5CCCCC5)c5n(c4c3)CCOc3ccccc3-5)[nH]c2c1 [Example 2-197, 2-{[(12-cyclohexyl-6,7-dihydro-5-oxa-7a-azadibenzo[a,e]azulene-9-carbonyl)amino]methyl}-3H-benzimidazole-5-carboxylic acid] | < 0.1
CC(C)(NC(=O)c1ccc2c(C3CCCCC3)c3n(c2c1)CCOc1ccccc1-3)c1nc2ccccc2[nH]1 [Example 2-198, N-[1-(1H-benzimidazol-2-yl)-1-methylethyl]-12-cyclohexyl-6,7-dihydro-5-oxa-7a-azadibenzo[a,e]azulene-9-carboxamide] | < 0.1
CC(C)(NC(=O)c1ccc2c(C3CCCCC3)c3n(c2c1)CCOc1ccccc1-3)c1nc2cc(Cl)ccc2[nH]1 [Example 2-199, N-[1-(5-chloro-1H-benzimidazol-2-yl)-1-methylethyl]-12-cyclohexyl-6,7-dihydro-5-oxa-7a-azadibenzo[a,e]azulene-9-carboxamide] | < 0.1
Cc1ccc(NC(=O)C(C)(C)NC(=O)c2ccc3c(C4CCCCC4)c4n(c3c2)CCOc2ccccc2-4)cc1C(=O)O [Example 2-200, 5-{2-[(12-cyclohexyl-6,7-dihydro-5-oxa-7a-azadibenzo[a,e]azulene-9-carbonyl)amino]-2-methylpropionylamino}-2-methylbenzoic acid] | < 0.1
CC(C)(NC(=O)c1ccc2c(C3CCCCC3)c3n(c2c1)CCOc1ccccc1-3)C(=O)Nc1cccc(C(=O)O)c1 [Example 2-201, 3-{2-[(12-cyclohexyl-6,7-dihydro-5-oxa-7a-azadibenzo[a,e]azulene-9-carbonyl)amino]-2-methylpropionylamino}benzoic acid] | < 0.1

Source: US20070049593A1 (priority 2004, published 2007)
